Columns and labels:
CK1α = molecular target: T1, CK1α (Homo sapiens, UniProt P48729+Q96SW2); experiment: Western blot, degradation of substrate protein in hPBMCs; type: cell-based; conditions: 24 hours treatment, compounds at 50 nM and 500 nM (concentration behind the class not stated)
T1 construct: effects of the compounds of the present disclosure on the expression of target proteins in cells; endogenous in cells; host or cells: human PBMCs (Milecell Biotechnologies)

IKZF1 = molecular target: T2, IKZF1 (Homo sapiens, UniProt Q13422+Q96SW2); experiment: as above; type: cell-based; conditions: 24 hours treatment, compounds at 50 nM and 500 nM (concentration behind the class not stated)
T2 construct: effects of the compounds of the present disclosure on the expression of target proteins in cells; endogenous in cells; host or cells: human PBMCs (Milecell Biotechnologies)

IKZF2 = molecular target: T3, IKZF2 (Homo sapiens, UniProt Q96SW2+Q9UKS7); experiment: as above; type: cell-based; conditions: 24 hours treatment, compounds at 50 nM and 500 nM (concentration behind the class not stated)
T3 construct: effects of the compounds of the present disclosure on the expression of target proteins in cells; endogenous in cells; host or cells: human PBMCs (Milecell Biotechnologies)

IKZF3 = molecular target: T4, IKZF3 (Homo sapiens, UniProt Q96SW2+Q9UKT9); experiment: as above; type: cell-based; conditions: 24 hours treatment, compounds at 50 nM and 500 nM (concentration behind the class not stated)
T4 construct: effects of the compounds of the present disclosure on the expression of target proteins in cells; endogenous in cells; host or cells: human PBMCs (Milecell Biotechnologies)

WEE1 = molecular target: T5, WEE1 (Homo sapiens, UniProt P30291+Q96SW2); experiment: as above; type: cell-based; conditions: 24 hours treatment, compounds at 50 nM and 500 nM (concentration behind the class not stated)
T5 construct: effects of the compounds of the present disclosure on the expression of target proteins in cells; endogenous in cells; host or cells: human PBMCs (Milecell Biotechnologies)

GSPT1 = experiment: as above; type: cell-based, Human; conditions: 24 hours treatment, compounds at 50 nM and 500 nM (concentration behind the class not stated)
[1] = molecular target: T6, human Cereblon WT GST-tagged protein (Homo sapiens, UniProt Q96SW2); experiment: CRBN-binding affinity, HTRF (CEREBLON BINDING kit); conditions: for inhibition at 0.5 µM: read-out: Inhibition Rate at 0.5 µM (%); for inhibition at 2 µM: read-out: Inhibition Rate at 2 µM (%)
T6 construct: purchased CISBIO 64BDCRBNPEH
T6 sequence (Q96SW2 whole entry): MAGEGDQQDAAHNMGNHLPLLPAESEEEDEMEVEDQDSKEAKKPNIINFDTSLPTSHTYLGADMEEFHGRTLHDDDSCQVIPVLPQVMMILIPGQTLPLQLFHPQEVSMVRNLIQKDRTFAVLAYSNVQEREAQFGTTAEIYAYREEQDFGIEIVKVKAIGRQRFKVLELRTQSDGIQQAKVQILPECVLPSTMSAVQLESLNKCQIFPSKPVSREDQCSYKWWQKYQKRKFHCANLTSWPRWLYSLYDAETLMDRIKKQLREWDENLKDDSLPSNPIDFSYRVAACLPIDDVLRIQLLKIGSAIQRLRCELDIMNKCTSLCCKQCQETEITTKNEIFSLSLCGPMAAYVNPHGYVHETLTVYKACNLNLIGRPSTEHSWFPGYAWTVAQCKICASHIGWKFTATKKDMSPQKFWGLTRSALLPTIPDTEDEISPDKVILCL

T1 sequence (P48729 whole entry): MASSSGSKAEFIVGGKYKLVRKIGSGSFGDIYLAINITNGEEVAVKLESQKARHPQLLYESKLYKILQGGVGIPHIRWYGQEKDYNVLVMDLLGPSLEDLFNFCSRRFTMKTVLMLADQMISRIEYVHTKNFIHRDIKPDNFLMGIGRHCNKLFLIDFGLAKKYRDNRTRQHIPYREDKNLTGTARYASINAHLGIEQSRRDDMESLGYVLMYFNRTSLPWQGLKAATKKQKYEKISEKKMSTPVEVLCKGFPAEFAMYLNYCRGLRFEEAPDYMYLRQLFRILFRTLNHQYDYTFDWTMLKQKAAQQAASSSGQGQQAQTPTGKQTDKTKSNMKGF
T1 sequence (Q96SW2 whole entry): as the sequence (Q96SW2 whole entry) above
T1 sequence (Q16531 whole entry partner): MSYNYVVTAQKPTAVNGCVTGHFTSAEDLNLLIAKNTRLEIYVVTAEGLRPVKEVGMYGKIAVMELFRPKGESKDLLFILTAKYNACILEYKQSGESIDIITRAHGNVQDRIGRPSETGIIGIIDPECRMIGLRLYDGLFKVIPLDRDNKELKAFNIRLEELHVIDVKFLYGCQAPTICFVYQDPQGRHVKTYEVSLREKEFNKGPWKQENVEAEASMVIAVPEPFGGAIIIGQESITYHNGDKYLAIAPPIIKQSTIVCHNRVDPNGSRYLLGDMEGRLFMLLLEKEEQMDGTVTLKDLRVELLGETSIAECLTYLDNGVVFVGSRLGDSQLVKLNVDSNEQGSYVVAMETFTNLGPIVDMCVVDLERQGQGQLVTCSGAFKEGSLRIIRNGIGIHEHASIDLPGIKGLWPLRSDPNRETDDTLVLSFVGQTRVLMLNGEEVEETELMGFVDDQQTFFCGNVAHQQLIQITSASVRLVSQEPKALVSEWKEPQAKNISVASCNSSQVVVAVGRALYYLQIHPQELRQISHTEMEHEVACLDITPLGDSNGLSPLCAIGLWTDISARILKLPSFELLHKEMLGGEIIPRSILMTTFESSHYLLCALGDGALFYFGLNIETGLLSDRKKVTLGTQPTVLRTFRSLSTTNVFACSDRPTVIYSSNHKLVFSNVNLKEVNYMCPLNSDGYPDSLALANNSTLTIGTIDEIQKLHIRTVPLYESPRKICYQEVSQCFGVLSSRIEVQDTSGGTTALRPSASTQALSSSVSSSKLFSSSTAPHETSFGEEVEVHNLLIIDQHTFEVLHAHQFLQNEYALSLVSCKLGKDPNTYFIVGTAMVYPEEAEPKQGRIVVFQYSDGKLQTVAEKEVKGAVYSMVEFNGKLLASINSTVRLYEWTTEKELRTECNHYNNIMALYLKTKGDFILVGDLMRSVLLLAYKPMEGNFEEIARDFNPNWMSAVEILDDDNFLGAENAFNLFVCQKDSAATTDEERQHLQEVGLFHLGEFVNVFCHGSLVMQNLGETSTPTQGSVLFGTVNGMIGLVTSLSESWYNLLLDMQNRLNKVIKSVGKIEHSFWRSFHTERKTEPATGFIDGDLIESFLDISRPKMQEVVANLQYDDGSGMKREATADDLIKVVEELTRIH
T2 sequence (Q13422 whole entry): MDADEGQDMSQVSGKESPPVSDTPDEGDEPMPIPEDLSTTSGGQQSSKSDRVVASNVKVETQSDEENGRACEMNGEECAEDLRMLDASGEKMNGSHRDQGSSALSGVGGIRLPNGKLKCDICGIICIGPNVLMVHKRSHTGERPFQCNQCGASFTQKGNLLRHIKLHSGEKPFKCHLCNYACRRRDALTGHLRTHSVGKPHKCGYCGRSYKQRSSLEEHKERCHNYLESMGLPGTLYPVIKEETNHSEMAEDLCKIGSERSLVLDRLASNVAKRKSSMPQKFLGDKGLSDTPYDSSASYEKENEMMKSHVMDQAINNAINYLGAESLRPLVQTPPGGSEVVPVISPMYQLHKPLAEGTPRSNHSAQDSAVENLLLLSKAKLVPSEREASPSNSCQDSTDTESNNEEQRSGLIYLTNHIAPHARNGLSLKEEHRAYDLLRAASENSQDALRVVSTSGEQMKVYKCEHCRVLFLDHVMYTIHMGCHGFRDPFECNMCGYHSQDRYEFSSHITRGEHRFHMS
T2 sequence (Q96SW2 whole entry): as the sequence (Q96SW2 whole entry) above
T2 sequence (Q16531 whole entry partner): as the sequence (Q16531 whole entry partner) above
T5 sequence (P30291 whole entry): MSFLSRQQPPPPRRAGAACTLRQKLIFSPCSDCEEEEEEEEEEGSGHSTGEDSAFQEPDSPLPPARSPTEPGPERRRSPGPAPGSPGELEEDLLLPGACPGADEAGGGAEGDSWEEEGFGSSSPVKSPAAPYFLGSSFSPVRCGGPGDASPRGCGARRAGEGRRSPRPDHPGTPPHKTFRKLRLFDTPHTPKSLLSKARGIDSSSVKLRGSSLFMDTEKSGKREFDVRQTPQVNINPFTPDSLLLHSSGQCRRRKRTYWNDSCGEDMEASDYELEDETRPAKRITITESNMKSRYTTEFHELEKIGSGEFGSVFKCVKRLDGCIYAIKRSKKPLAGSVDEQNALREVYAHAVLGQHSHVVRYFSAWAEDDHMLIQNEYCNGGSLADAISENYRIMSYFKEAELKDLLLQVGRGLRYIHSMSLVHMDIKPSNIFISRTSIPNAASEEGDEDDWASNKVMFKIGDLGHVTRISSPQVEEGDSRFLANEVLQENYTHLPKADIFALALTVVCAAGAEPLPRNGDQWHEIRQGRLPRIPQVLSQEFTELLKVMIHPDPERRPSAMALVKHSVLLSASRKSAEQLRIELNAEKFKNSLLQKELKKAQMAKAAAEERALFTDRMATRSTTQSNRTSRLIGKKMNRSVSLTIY
T5 sequence (Q96SW2 whole entry): as the sequence (Q96SW2 whole entry) above
T5 sequence (Q16531 whole entry partner): as the sequence (Q16531 whole entry partner) above
T4 sequence (Q9UKT9 whole entry): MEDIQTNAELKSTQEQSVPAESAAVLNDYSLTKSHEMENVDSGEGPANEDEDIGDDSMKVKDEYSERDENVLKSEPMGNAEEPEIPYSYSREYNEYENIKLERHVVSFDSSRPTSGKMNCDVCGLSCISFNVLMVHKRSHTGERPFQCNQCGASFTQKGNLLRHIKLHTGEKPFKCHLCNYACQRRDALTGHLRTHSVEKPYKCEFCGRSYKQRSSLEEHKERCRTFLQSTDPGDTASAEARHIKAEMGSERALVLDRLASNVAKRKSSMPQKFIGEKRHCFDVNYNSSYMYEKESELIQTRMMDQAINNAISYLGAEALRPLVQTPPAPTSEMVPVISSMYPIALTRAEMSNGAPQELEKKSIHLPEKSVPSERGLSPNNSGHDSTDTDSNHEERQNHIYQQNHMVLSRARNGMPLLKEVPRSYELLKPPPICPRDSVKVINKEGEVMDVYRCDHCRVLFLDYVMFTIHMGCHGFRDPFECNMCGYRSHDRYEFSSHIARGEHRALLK
T4 sequence (Q96SW2 whole entry): as the sequence (Q96SW2 whole entry) above
T4 sequence (Q16531 whole entry partner): as the sequence (Q16531 whole entry partner) above
T3 sequence (Q9UKS7 whole entry): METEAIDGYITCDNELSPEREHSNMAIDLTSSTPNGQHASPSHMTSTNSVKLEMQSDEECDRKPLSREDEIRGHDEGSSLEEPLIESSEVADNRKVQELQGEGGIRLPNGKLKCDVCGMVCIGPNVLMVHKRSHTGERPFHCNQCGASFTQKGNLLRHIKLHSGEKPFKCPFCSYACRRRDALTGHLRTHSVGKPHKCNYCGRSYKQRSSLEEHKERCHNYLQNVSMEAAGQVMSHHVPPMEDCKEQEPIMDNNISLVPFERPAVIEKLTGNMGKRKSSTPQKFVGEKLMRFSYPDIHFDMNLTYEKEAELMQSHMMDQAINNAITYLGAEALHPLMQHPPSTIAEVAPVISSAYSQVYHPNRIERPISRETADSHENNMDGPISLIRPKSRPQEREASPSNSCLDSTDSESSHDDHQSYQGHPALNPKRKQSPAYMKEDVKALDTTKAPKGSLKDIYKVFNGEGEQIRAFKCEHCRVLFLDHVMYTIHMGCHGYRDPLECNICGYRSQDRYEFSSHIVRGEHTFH
T3 sequence (Q96SW2 whole entry): as the sequence (Q96SW2 whole entry) above
T3 sequence (Q16531 whole entry partner): as the sequence (Q16531 whole entry partner) above

SMILES	CK1α substrate protein remaining % (CK1α)	IKZF 1 substrate protein remaining % (IKZF1)	IKZF2 substrate protein remaining % (IKZF2)	IKZF3 substrate protein remaining % (IKZF3)	Wee1 substrate protein remaining % (WEE1)	GSPT1 substrate protein remaining % (GSPT1)	inhibition at 0.5 µM [1] [%]	inhibition at 2 µM [1] [%]
O=C1CCC(N2Cc3c(CN4CCC(c5cccs5)CC4)cccc3C2=S)C(=O)N1 (centres unmarked) [GT-08320, 3-(4-((4-(thiophen-2-yl)piperidin-1-yl)methyl)-1-thioxoisoindolin-2-yl)piperidine-2,6-dione]	B (80%< substrate protein remaining %≤ 100%)	B (80%< substrate protein remaining %≤ 100%)	B (80%< substrate protein remaining %≤ 100%)	A (0% ≤ substrate protein remaining % ≤ 80%)	A (0% ≤ substrate protein remaining % ≤ 80%)	B (80%< substrate protein remaining %≤ 100%)	40 to 53	60 to 80
O=C1CCC(N2Cc3c(CN4CCC(c5cccc(F)c5F)CC4)cccc3C2=S)C(=O)N1 (centres unmarked) [GT-08322, 3-(4-((4-(2,3-difluorophenyl)piperidin-1-yl)methyl)-1-thioxoisoindolin-2-yl)piperidine-2,6-dione]	A (0% ≤ substrate protein remaining % ≤ 80%)	B (80%< substrate protein remaining %≤ 100%)	A (0% ≤ substrate protein remaining % ≤ 80%)	B (80%< substrate protein remaining %≤ 100%)	A (0% ≤ substrate protein remaining % ≤ 80%)	A (0% ≤ substrate protein remaining % ≤ 80%)	30 to 40	53 to 60
O=C1CCC(N2Cc3cc(CN4CCC(c5ccoc5)CC4)ccc3C2=S)C(=O)N1 (centres unmarked) [GT-08326, 3-(5-((4-(furan-3-yl)piperidin-1-yl)methyl)-1-thioxoisoindolin-2-yl)piperidine-2,6-dione]	A (0% ≤ substrate protein remaining % ≤ 80%)	B (80%< substrate protein remaining %≤ 100%)	A (0% ≤ substrate protein remaining % ≤ 80%)	B (80%< substrate protein remaining %≤ 100%)	B (80%< substrate protein remaining %≤ 100%)	A (0% ≤ substrate protein remaining % ≤ 80%)	40 to 53	80 to 100
O=C1CCC(N2Cc3c(CN4CCc5sccc5C4)cccc3C2=S)C(=O)N1 (centres unmarked) [GT-08333, 3-(4-((6,7-dihydrothieno[3,2-c]pyridin-5(4H)-yl)methyl)-1-thioxoisoindolin-2-yl)piperidine-2,6-dione]	A (0% ≤ substrate protein remaining % ≤ 80%)	B (80%< substrate protein remaining %≤ 100%)	B (80%< substrate protein remaining %≤ 100%)	B (80%< substrate protein remaining %≤ 100%)	A (0% ≤ substrate protein remaining % ≤ 80%)	A (0% ≤ substrate protein remaining % ≤ 80%)	60 to 80	80 to 100

Source: patent publication EP4745135A1 (Gluetacs Therapeutics (Shanghai) Co., Ltd., priority 2023, dated 2025)
